Among the data in ChEMBL document CHEMBL1144295, “Active site directed inhibitors of replication-specific bacterial DNA polymerases” (Bioorg Med Chem Lett, 2005) are Ki and inhibition values, retold here.

As usually defined, the Ki is the dissociation constant of the complex between target and ligand, obtained from inhibition or displacement. Higher therefore signals a looser hold on the target. For orientation: inhibition means the change of the read-out against control, counted positive when it falls. A low value points to a response near the control.

The target in assay [1] is T1, DNA polymerase III PolC-type (Bacillus subtilis (strain 168), UniProt P13267). The assay is described as follows: Inhibitory constant against DNA polymerases IIIC produced by Bacillus subtilis; (a).
T1 sequence (P13267 whole entry): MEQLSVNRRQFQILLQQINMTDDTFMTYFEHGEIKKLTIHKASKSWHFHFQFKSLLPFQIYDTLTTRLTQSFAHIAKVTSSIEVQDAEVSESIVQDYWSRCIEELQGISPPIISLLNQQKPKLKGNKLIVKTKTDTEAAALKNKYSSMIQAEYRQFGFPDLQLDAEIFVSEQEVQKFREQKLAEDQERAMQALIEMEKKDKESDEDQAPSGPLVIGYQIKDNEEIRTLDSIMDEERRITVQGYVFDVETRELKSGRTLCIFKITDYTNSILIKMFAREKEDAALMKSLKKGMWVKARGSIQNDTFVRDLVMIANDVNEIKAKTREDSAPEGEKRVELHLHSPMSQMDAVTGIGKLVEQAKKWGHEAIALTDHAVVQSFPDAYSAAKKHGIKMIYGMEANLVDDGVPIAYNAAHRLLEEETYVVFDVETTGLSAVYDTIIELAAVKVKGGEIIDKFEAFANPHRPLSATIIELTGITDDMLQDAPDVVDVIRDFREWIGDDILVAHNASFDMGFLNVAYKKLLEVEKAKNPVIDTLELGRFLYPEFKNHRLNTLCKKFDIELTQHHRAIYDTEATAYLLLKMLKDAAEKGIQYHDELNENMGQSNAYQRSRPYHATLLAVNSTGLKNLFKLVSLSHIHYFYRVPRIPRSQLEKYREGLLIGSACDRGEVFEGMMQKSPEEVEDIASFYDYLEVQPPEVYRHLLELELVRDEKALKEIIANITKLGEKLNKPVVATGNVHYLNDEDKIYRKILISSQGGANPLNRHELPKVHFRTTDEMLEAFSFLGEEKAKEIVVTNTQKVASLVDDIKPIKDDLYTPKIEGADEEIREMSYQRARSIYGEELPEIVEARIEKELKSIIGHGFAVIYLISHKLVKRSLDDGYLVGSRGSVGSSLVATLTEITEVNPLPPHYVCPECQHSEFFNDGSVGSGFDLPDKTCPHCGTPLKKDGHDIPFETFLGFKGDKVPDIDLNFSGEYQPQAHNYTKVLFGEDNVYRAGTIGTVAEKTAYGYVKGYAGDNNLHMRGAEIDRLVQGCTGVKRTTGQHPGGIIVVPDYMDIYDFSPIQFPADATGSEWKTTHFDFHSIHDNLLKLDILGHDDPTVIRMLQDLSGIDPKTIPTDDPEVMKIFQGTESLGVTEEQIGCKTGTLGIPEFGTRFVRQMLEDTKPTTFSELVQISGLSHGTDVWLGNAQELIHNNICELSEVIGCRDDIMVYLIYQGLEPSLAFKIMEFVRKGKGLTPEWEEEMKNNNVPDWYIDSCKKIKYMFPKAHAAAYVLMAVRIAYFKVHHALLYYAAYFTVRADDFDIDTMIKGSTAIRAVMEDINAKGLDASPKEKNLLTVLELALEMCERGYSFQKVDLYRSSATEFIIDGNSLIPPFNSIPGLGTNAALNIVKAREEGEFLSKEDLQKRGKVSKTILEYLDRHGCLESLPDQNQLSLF
Assay [2] addresses T2, DNA polymerase III subunit alpha (Escherichia coli K-12, UniProt P10443). The assay is described as follows: Inhibitory constant against DNA polymerases IIIE from Escherichia coli; (a).
The target of assay [3] is T2, DNA polymerase III subunit alpha. The assay is described as follows: Inhibition against DNA polymerases IIIE from Escherichia coli; (a); IN=<10% inhibition at highest concentration tested.
In assay [4] the target is T3, DNA polymerase III subunit alpha (Bacillus subtilis (strain 168), UniProt O34623).
T3 sequence (O34623 whole entry): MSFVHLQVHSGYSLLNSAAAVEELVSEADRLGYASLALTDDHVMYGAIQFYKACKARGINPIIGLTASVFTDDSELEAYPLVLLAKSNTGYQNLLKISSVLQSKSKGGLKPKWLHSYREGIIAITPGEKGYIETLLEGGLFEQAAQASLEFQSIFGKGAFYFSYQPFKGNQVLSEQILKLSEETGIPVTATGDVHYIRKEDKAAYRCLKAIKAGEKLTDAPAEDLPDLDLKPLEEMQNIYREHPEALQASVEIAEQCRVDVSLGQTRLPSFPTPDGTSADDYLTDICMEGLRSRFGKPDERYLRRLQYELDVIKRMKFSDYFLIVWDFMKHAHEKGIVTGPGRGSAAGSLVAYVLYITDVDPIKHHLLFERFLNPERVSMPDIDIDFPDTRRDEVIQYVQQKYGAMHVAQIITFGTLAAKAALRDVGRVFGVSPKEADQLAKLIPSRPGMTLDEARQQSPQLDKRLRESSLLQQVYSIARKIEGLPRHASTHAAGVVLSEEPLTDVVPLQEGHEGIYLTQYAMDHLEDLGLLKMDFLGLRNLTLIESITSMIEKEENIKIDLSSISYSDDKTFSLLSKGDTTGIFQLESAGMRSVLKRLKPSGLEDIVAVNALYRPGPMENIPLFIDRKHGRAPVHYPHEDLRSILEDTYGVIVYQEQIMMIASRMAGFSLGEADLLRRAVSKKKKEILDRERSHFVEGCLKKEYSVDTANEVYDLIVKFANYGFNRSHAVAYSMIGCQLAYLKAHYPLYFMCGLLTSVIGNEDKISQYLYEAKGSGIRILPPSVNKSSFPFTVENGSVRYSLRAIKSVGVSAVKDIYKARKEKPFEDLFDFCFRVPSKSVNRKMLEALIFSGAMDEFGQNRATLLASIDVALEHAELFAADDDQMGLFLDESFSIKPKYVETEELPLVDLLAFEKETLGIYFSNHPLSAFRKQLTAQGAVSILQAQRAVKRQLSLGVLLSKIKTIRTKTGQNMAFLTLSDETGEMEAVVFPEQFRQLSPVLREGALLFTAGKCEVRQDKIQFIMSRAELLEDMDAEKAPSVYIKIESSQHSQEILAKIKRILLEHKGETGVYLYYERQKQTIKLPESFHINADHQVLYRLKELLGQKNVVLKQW
The assay is described as follows: Inhibition of DNA polymerases IIIE from Bacillus subtilis; (a); IN=<10% inhibition at highest concentration tested.

Assay [5] has as its target T1, DNA polymerase III PolC-type. The assay is described as follows: Inhibition of DNA polymerases IIIC produced by Bacillus subtilis; (a); IN=<10% inhibition at highest concentration tested.

T2 sequence (P10443 whole entry): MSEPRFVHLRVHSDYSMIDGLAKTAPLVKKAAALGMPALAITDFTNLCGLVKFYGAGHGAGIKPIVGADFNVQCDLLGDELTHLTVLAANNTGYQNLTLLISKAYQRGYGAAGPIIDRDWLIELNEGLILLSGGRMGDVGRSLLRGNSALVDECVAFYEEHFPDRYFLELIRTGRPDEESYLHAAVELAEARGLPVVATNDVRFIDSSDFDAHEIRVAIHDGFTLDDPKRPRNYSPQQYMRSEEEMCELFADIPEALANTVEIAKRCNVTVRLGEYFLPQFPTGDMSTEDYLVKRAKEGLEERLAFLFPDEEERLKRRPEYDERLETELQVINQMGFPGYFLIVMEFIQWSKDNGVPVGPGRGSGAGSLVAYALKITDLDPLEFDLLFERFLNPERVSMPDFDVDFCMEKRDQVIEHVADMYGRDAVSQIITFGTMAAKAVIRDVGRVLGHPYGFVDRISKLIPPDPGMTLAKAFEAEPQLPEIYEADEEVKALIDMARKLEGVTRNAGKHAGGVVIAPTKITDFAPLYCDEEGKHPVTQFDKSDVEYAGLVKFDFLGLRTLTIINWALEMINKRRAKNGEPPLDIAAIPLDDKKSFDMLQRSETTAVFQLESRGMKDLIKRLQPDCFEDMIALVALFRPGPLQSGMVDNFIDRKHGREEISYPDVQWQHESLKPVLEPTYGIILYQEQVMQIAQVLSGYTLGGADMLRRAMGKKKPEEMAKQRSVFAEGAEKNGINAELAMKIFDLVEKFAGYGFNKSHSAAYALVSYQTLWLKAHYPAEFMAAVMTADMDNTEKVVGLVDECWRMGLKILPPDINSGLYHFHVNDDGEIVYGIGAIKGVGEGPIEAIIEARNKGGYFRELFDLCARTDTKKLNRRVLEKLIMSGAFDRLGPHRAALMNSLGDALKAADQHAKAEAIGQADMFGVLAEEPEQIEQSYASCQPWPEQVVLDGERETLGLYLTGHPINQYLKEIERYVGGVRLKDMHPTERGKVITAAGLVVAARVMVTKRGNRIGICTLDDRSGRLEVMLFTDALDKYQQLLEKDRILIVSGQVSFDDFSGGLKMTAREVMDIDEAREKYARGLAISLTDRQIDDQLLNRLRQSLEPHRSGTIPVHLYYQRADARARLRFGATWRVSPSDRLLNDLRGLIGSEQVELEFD

For `O=C(O)CCCn1cnc2nc(NCc3ccc(Cl)c(Cl)c3)nc(O)c21`, the inhibitory constant (Ki) in assay [1] is 170 nM. Same read-out and setting: in the case of `CC(=O)O[C@H](C)CCCCn1cnc2nc(NCc3ccc(Cl)c(Cl)c3)[nH]c(=O)c21` it was 80 nM; in that of `C[C@@H](O)CCCCn1cnc2nc(NCc3ccc(Cl)c(Cl)c3)[nH]c(=O)c21`, 52 nM; in that of `O=c1[nH]c(NCc2ccc(Cl)c(Cl)c2)nc2ncn(CCOCCO)c12`, 370 nM.

Molecule `CC(C)C(=O)OCCCCCn1cnc2nc(NCc3ccc(Cl)c(Cl)c3)[nH]c(=O)c21` returned a Ki in assay [1] of 370 nM. In other words, the sub-micromolar range. For the molecule `O=C(O)CCCn1cnc2c(=O)[nH]c(NCc3ccc(Cl)c(Cl)c3)nc21`, the Ki in assay [1] amounted to 28000 nM. Still for that read-out and setting: in the case of `CCOC(=O)CCCn1cnc2nc(NCc3ccc(Cl)c(Cl)c3)[nH]c(=O)c21` it was 150 nM. On to `CCc1cc(Nc2cc(=O)[nH]c(=O)[nH]2)ccc1C`, for which the Ki in assay [2] was greater than 323000 nM; in assay [1], 310 nM.

`O=c1cc(NCc2ccc(Cl)c(CCl)c2)[nH]c(=O)[nH]1`: in assay [1], the Ki worked out at 420 nM. In assay [1], `C[S+]([O-])CCCCCn1cnc2nc(NCc3ccc(Cl)c(Cl)c3)nc(O)c21` (stereo unspecified) yielded an inhibitory constant (Ki) of 93 nM. In turn, `CCc1cc(Nc2nc(O)c3[nH]cnc3n2)ccc1C` gave a Ki in assay [1] of 2700 nM. In assay [3], this molecule had an inhibition of less than 10%. For the molecule `CCc1cc(Nc2nc(O)c3ncn(CCCCO)c3n2)ccc1C`, the inhibition in assay [4], in assay [3] and in assay [5] was less than 10% throughout. Molecule `CSCCCCCn1cnc2nc(NCc3ccc(Cl)c(Cl)c3)[nH]c(=O)c21` had an inhibition constant Ki in assay [1] of 230 nM. In other words, the sub-micromolar range. For `Oc1[nH]c(NCc2ccc(Cl)c(Cl)c2)nc2ncnc1-2`, the inhibition constant Ki in assay [1] was 720 nM. This Ki is about 3.1-fold higher than that of the molecule before.

Regarding `COCCCCCn1cnc2nc(NCc3ccc(Cl)c(Cl)c3)[nH]c(=O)c21`, the Ki in assay [1] was 70 nM. Against the preceding molecule, the Ki is about 10-fold lower. Same read-out and setting: in the case of `CCOCCn1cnc2nc(NCc3ccc(Cl)c(Cl)c3)[nH]c(=O)c21` it was 330 nM. Same read-out and setting: in the case of `CCOCCn1cnc2c(=O)[nH]c(NCc3ccc(Cl)c(Cl)c3)nc21` it was 116000 nM; in that of `OCCCCn1cnc2c(O)nc(NCc3ccc(Cl)c(Cl)c3)nc21`, 712000 nM; in that of `CCOC(=O)CCCn1cnc2c(O)nc(NCc3ccc(Cl)c(Cl)c3)nc21`, 825000 nM.

In assay [1], `CS(=O)(=O)CCCCCn1cnc2nc(NCc3ccc(Cl)c(Cl)c3)nc(O)c21` yielded an inhibitory constant (Ki) of 280 nM. For the molecule `CCc1cc(Nc2nc(O)c3c(ncn3CCCCO)n2)ccc1C`, the inhibition in assay [4] and in assay [3] was less than 10% throughout.
